From patent US11065314B2, “Peptides and combination of peptides for use in immunotherapy against breast cancer and other cancers” (Immatics Biotechnologies GmbH, priority 2015, dated 2021)

Key:
[1] = system: CD8+ T cells of healthy HLA-A*02 donors; test: In vitro T-cell priming (aAPC with pMHC and anti-CD28), pMHC multimer readout; format: cell-based, human; settings: HLA-A*02 restricted peptides, positive wells and donors among evaluable, Table 10B
From the text: In order to obtain information regarding the immunogenicity of the TUMAPs of the present invention, the inventors performed investigations using an in vitro T-cell priming assay based on repeated stimulations of CD8+ T cells with artificial antigen presenting cells (aAPCs) loaded with peptide/MHC complexes and anti-CD28 antibody.
In order to perform in vitro stimulations by artificial antigen presenting cells loaded with peptide-MHC complex (pMHC) and anti-CD28 antibody, the inventors first isolated CD8+ T cells from fresh HLA-A*02 leukapheresis products via positive selection using CD8 microbeads (Miltenyi Biotec, Bergisch-Gladbach, Germany) of healthy donors obtained from the University clinics Mannheim, Germany, after informed consent.
PBMCs and isolated CD8+ lymphocytes were incubated in T-cell medium (TCM) until use consisting of RPMI-Glutamax (Invitrogen, Karlsruhe, Germany) supplemented with 10% heat inactivated human AB serum (PAN-Biotech, Aidenbach, Germany), 100 U/ml Penicillin/100 μg/ml Streptomycin (Cambrex, Cologne, Germany), 1 mM sodium pyruvate (CC Pro, Oberdorla, Germany), 20 μg/ml Gentamycin (Cambrex). 2.5 ng/ml IL-7 (PromoCell, Heidelberg, Germany) and 10 U/ml IL-2 (Novartis Pharma, Nümberg, Germany) were also added to the TCM at this step.
Generation of pMHC/anti-CD28 coated beads, T-cell stimulations and readout was performed in a highly defined in vitro system using four different pMHC molecules per stimulation condition and 8 different pMHC molecules per readout condition.
The purified co-stimulatory mouse IgG2a anti human CD28 Ab 9.3 (Jung et al., 1987) was chemically biotinylated using Sulfo-N-hydroxysuccinimidobiotin as recommended by the manufacturer (Perbio, Bonn, Germany). Beads used were 5.6 μm diameter streptavidin coated polystyrene particles (Bangs Laboratories, Illinois, USA).
800.000 beads/200 μl were coated in 96-well plates in the presence of 4×12.5 ng different biotin-pMHC, washed and 600 ng biotin anti-CD28 were added subsequently in a volume of 200 μl. Stimulations were initiated in 96-well plates by co-incubating 1×10^6 CD8+ T cells with 2×10^5 washed coated beads in 200 μl TCM supplemented with 5 ng/ml IL-12 (PromoCell) for 3 days at 37° C. Half of the medium was then exchanged by fresh TCM supplemented with 80 U/ml IL-2 and incubating was continued for 4 days at 37° C. This stimulation cycle was performed for a total of three times. For the pMHC multimer readout using 8 different pMHC molecules per condition, a two-dimensional combinatorial coding approach was used as previously described (Andersen et al., 2012) with minor modifications encompassing coupling to 5 different fluorochromes. Finally, multimeric analyses were performed by staining the cells with Live/dead near IR dye (Invitrogen, Karlsruhe, Germany), CD8-FITC antibody clone SK1 (BD, Heidelberg, Germany) and fluorescent pMHC multimers. For analysis, a BD LSRII SORP cytometer equipped with appropriate lasers and filters was used. Peptide specific cells were calculated as percentage of total CD8+ cells. Evaluation of multimeric analysis was done using the FlowJo software (Tree Star, Oregon, USA). In vitro priming of specific multimer+CD8+ lymphocytes was detected by comparing to negative control stimulations.

HLA-A*02:01 = HLA-A*02:01 (Homo sapiens, UniProt P04439, D140Y/D185E/D98H/E176V/E277Q/G131W/G231S/I119V/I121R/I166T/I218V/L300P/L318F/N151K/N90K/P208A/P217A/Q86G/Q94H/R138H/R169H/T345S); test: MHC binding assay: UV-ligand exchange with β2m ELISA; settings: binding to HLA-A*02:01, UV-ligand exchange
From the text: Candidate peptides for T cell based therapies according to the present invention were further tested for their MHC binding capacity (affinity). The individual peptide-MHC complexes were produced by UV-ligand exchange, where a UV-sensitive peptide is cleaved upon UV-irradiation, and exchanged with the peptide of interest as analyzed. Only peptide candidates that can effectively bind and stabilize the peptide-receptive MHC molecules prevent dissociation of the MHC complexes. To determine the yield of the exchange reaction, an ELISA was performed based on the detection of the light chain (β2m) of stabilized MHC complexes. The assay was performed as generally described in Rodenko et al. (Rodenko et al., 2006).
96 well MAXISorp plates (NUNC) were coated over night with 2 ug/ml streptavidin in PBS at room temperature, washed 4× and blocked for 1 h at 37° C. in 2% BSA containing blocking buffer. Refolded HLA-A*02:01/MLA-001 monomers served as standards, covering the range of 15-500 ng/ml. Peptide-MHC monomers of the UV-exchange reaction were diluted 100-fold in blocking buffer. Samples were incubated for 1 h at 37° C., washed four times, incubated with 2 ug/ml HRP conjugated anti-β2m for 1 h at 37° C., washed again and detected with TMB solution that is stopped with […]. Absorption was measured at 450 nm. Candidate peptides that show a high exchange yield (preferably higher than 50%, most preferred higher than 75%) are generally preferred for a generation and production of antibodies or fragments thereof, and/or T cell receptors or fragments thereof, as they show sufficient avidity to the MHC molecules and prevent dissociation of the MHC complexes.

Row | Sequence | Wells positive [%] [1] | Peptide Exchange (peptide exchange yield) (HLA-A*02:01)
1 | ALAGSSPQV (listed as Homo sapiens) [SEQ ID NO: 2, HLA-A*02 peptide, source gene CNTD2] | “++” (20%-49% = ++) | “+++” (≥50 = +++)
2 | GLLGFQAEA (listed as Homo sapiens) [SEQ ID NO: 24, HLA-A*02 peptide, source gene MAGED1] | “++” (20%-49% = ++) | “++++” (≥75% = ++++)
3 | KMPEHISTV (listed as Homo sapiens) [SEQ ID NO: 1, HLA-A*02 peptide, source gene CILP] | “+” (<20% = +) | “+++” (≥50 = +++)
4 | SLADAVEKV (listed as Homo sapiens) [SEQ ID NO: 23, HLA-A*02 peptide, source gene CCDC122] | “+++” (50%-69% = +++) | “+++” (≥50 = +++)
5 | SLLTEPALV (listed as Homo sapiens) [SEQ ID NO: 21, HLA-A*02 peptide, source gene TBC1D9] | “++” (20%-49% = ++) | “+++” (≥50 = +++)
6 | YIDGLESRV (listed as Homo sapiens) [SEQ ID NO: 22, HLA-A*02 peptide, source gene CREB3L4] | “+” (<20% = +) | “+++” (≥50 = +++)
